target: Fc-E-cadherin chimeric protein; assay: BIAcore binding of peptide modulating agents to captured Fc-E-cadherin; details: absence of calcium
Description: The binding of representative peptide modulating agents to Fc-E-cadherin chimeric protein in either the presence (3 mM CaCl2) or absence of calcium was assessed using a BIAcore X™ Biosensor (Pharmacia Ltd., Sweden). Protein A was immobilized on the flow cells of a CM 5 sensor chip using a standard amine coupling method. The surfaces were activated with a 7 min injection of NHS/EDC, followed by a 7 min injection of protein A in 10 mM acetate pH 5.0 at a concentration of 50 ug/mL and blocked with a 7 min injection of […] ethanolamine, pH 8.2. […] Next, Fc-E-cadherin was injected over the protein A surface to be captured on the sensor chip.
To test compound binding to these surfaces, candidate modulating agents were injected in a three-fold dilution series over the Fc-E-cadherin-coated surfaces using six concentrations and each concentration was repeated twice.

Row | KD Fc-ECAD no Ca++ | Substance
1 | no binding | AWVIPP [H-AWVIPP-NH2]
2 | no binding | DWVAPP [H-DWVAPP-NH2]
3 | no binding | DWVIAP [H-DWVIAP-NH2]
4 | no binding | DWVIPA [H-DWVIPA-NH2]
5 | no binding | DWVIPP [H-DWVIPP-NH2]
6 | no binding | PWVIPP [H-PWVIPP-NH2]

tested on: SKOV3 human ovarian cancer cells; assay: Disruption of confluent SKOV3 monolayers (microscopic examination); type: cell-based; details: 1 mg/ml of culture medium, 24 hours
Description: We investigated the effects of the linear peptide ADH254 (H-DWVIPP-NH2; classical cadherin derived peptide) on confluent cultures of SKOV3 cells. SKOV3 human ovarian cancer cells express N-cadherin. The cells were cultured in minimum essential medium (MEM) supplemented with 10% fetal calf serum, non-essential amino acids, fungizone, penicillin-streptomycin, and gentamicin in a humidified atmosphere (5% CO2) at 37° C. All culture reagents were purchased from GIBCO (Burlington, ON). ADH254 (1 mg/ml of culture medium) was added to confluent cultures of SKOV3 cells. After 24 hours of treatment, the cells were fixed with 4% paraformaldehyde, followed by 3 washes with phosphate buffered saline, and then stained with hematoxylin. Control cultures were grown in the absence of peptide.
The peptide caused the SKOV3 cells to detach from one another and adopt an elongated, fibroblast-like morphology. These observations indicate that Trp containing peptides can disrupt cell adhesion.

Row | Substance | disruption of confluent SKOV3 monolayers
7 | DWVIPP [H-DWVIPP-NH2] | caused disruption of the confluent SKOV3 monolayers
